For this assay, the target named is T1, Axl (Homo sapiens, UniProt P30530).
T1 construct: endogenous in cells; host or cells: HeLa cells
T1 sequence (P30530 26-894): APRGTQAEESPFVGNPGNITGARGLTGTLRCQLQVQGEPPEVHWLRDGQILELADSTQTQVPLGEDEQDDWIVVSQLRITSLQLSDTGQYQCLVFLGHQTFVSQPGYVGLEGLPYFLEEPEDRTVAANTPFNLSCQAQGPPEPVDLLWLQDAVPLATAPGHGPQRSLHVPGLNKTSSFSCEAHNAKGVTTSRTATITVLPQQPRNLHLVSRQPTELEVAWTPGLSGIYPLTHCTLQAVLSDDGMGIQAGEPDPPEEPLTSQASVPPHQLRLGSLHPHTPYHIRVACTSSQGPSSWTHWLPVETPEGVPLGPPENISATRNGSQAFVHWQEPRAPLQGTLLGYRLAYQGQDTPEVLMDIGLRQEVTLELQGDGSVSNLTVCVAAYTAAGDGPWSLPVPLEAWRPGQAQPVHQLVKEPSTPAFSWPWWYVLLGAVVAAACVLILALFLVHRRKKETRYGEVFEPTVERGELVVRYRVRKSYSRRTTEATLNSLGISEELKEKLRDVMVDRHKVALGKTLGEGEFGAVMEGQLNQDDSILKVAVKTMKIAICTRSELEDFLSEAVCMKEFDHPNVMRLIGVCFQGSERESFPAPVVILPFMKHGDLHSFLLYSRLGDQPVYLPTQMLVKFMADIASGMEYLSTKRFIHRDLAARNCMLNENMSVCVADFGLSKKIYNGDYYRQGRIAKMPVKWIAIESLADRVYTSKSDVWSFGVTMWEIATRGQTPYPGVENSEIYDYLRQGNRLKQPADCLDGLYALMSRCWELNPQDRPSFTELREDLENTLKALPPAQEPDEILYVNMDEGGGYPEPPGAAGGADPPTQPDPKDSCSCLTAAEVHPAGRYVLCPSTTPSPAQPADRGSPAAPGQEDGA
Kind of assay: Phospho-Akt In-Cell Western Assay (inhibition of Axl activity after Axl-antibody cross-linking). Type of assay: cell-based. The following applies: read-out: IC50. The method, then:
The compounds of the invention were tested in the following assay for their ability to inhibit Axl activity.
Phospho-Akt In-Cell Western Assay
• Cell culture plate: 96 well assay plate (Corning 3610), white, clear bottom, tissue-culture treated. • Cells: Hela cells. • Starvation medium: For Axl stimulation: 0.5% FCS (fetal calf serum) in DMEM, plus Axl/Fc (extracellular domain of AXL fused to immunoglobulin Fc region) (R&D, 154-AL) 500 ng/mL. • For EGF (epidermal growth factor) stimulation: 0.5% FCS in DMEM (Dulbecco's modified Eagles medium). • Poly-L-Lysine 0.01% solution (the working solution): […], dilute In PBS (phosphate buffered saline). • Axl antibody cross-linking: • 1st: Mouse anti-Axl (R&D, MAB154). • 2nd: Biotin-SP-conjugated AffiniPure goat anti-mouse IgG (H+ L) (Jackson ImmunoResearch #115-065-003). • Fixing buffer: 4% formaldehyde in PBS. • Wash buffer: 0.1% TritonX-100 in PBS. • Quenching buffer: 3% H2O2, 0.1% Azide in wash buffer, Azide and hydrogen peroxide (H2O2) are added fresh. • Blocking buffer: 5% BSA in TBST (tris buffered saline plus 0.1% Tween 20). • Primary antibody: Rabbit anti-human Phospho-Akt antibody (Cell Signaling 9271): 1×250 diluted in blocking buffer. • Secondary antibody: HRP (horse radish peroxidase)-conjugated Goat anti-Rabbit secondary, stock solution: Jackson ImmunoResearch (Goat anti-Rabbit HRP, #111-035-144) 1:1 diluted in glycerol, store at −20° C. The working solution: 1×2000 dilution of stock in blocking buffer. • Chemiluminescent working solution (Pierce, 37030): SuperSignal ELISA (enzyme linked immunosorbant assay) Pico Chemiluminescent substrate. • Crystal Violet solution: Stock: 2.5% Crystal violet in methanol, filtered and kept at ambient temperature. The working solution: dilute the stock 1:20 with PBS immediately before use. • 10% SDS: working solution: 5% SDS (sodium dodecylsulfate), diluted in PBS Methods: Day 1:
A 96 well TC (tissue culture treated) plate was coated with 10 μg/mL poly-L-Lysine at 37° C. for 30 min, washed twice with PBS, and air-dried for 5 minutes before cells were added. Hela cells were seeded at 10,000 cells/well and the cells were starved in 100 μL starvation medium containing Axl/Fc for 24 hrs.
The cells were pre-treated with test compounds by adding 100 μL of 2× test compound to the starvation medium on the cells. The cells were incubated at 37° C. for 1 hr before stimulation.
The resulting mix was warmed to 37° C. 50 μL of 5×Axl 1st/2nd of antibody cluster was added to the cells and the cells were incubated at 37° C. for 5 min.
After 5 minutes stimulation, the plate was flicked to remove medium and the plate was tapped onto paper towels. Formaldehyde (4.0% in PBS, 100 μL) was added to fix the cells and the cells were incubated at ambient temperature for 20 min without shaking.
The cells were washed with a plate washer buffer to remove the formaldehyde solution. The plate was flicked to removed excess wash buffer and tapped onto paper towels. Quenching buffer (100 μL) was added to each well and the cells were incubated at ambient temperature for 20 minutes without shaking.
The cells were washed with a plate washer buffer to remove the quenching buffer. Blocking buffer (100 μL) was added and the cells were incubated at ambient temperature for at least an hour with gentle shaking.
The cells were washed with a plate washer buffer and diluted primary antibody (50 μL) was added to each well (blocking buffer was added to the negative control wells instead). The plates were incubated overnight at 4° C. with gentle shaking.
The wash buffer was removed, diluted secondary antibody (100 μL) was added, and the cells were incubated at ambient temperature for 1 hour with gentle shaking. During the incubation, the chemiluminescent reagent was brought to ambient temperature.
The secondary antibody was removed by washing the cells 1× with wash buffer, 1× with PBS by plate washer.

The mark [1] stands for this setting: inhibition of Axl activity, Table 1, compounds of formula (Ia).
Where [2] appears, read: Hela cells, phospho-Akt chemiluminescence normalized to relative cell number, compounds of formula (Ia), Table 1.

These results are taken from patent US7709482B2, “Polycyclic heteroaryl substituted triazoles useful as Axl inhibitors” (Rigel Pharmaceuticals, Inc., priority 2006, dated 2010).

pIC50: −log10 of the molar value. Read-outs that look alike come from different tables or passages of the source.

As for `CN(C)C1CCN(C/C=C/c2ccc(Nc3nc(N)n(-c4cc5c(nn4)-c4ccccc4CCC5)n3)cn2)CC1` [Compound 146, 1-(6,7-dihydro-5H-benzo[6,7]cyclohepta[1,2-c]pyridazin-3-yl)-N^3-(6-(3-(4-dimethylaminopiperidin-1-yl)-(E)-propenyl)pyridin-3-yl)-1H-1,2,4-triazole-3,5-diamine], under setting [1], the pIC50 (usually the IC50 on a negative log10 scale, so that one unit is a factor of ten) is above 6.00.

With `CN1CCc2ncc(Nc3nc(N)n(-c4cc5c(nn4)-c4ccccc4CCC5)n3)cc2C1` [Compound 28, 1-(6,7-dihydro-5H-benzo[6,7]cyclohepta[1,2-c]pyridazin-3-yl)-N^3-(6-methyl-5,6,7,8-tetrahydro-1,6-naphthyridin-3-yl)-1H-1,2,4-triazole-3,5-diamine], the pIC50 under setting [2] was above 6.00.

With `CN1CCC(N2CCN(c3ccc(Nc4nc(N)n(-c5cc6c(nn5)-c5ccccc5CCC6)n4)cc3F)CC2)CC1` [Compound 109, 1-(6,7-dihydro-5H-benzo[6,7]cyclohepta[1,2-c]pyridazin-3-yl)-N^3-(3-fluoro-4-(4-N-methylpiperidin-4-ylpiperazinyl)phenyl)-1H-1,2,4-triazole-3,5-diamine], the negative-log IC50 (pIC50) under setting [2] is above 6.00.

For `CC1CN(c2ccc(Nc3nc(N)n(-c4cc5c(nn4)-c4ccccc4CCC5)n3)cc2)CC(C)N1` (stereo not shown) [Compound 17, 1-(6,7-dihydro-5H-benzo[6,7]cyclohepta[1,2-c]pyridazin-3-yl)-N^3-(4-(3,5-dimethylpiperazin-1-yl)phenyl)-1H-1,2,4-triazole-3,5-diamine], the negative-log IC50 (pIC50) under setting [2] is above 6.00.

For the molecule `Nc1nc(Nc2ccc3c(c2)CCC(N2CC[C@H](O)C2)CC3)nn1-c1cc2c(nn1)-c1ccccc1CCC2` (stereo partly drawn) [Compound 221, 1-(6,7-dihydro-5H-benzo[6,7]cyclohepta[1,2-c]pyridazin-3-yl)-N^3-(7-(3-(S)-hydroxypyrrolidin-1-yl)-6,7,8,9-tetrahydro-5H-benzo[7]annulene-2-yl)-1H-1,2,4-triazole-3,5-diamine], under setting [1], the pIC50 was above 6.00.

As to `Nc1nc(Nc2cnc(N3CCC(N4CCCC4)CC3)nc2)nn1-c1cc2c(nn1)-c1ccccc1CCC2` [Compound 147, 1-(6,7-dihydro-5H-benzo[6,7]cyclohepta[1,2-c]pyridazin-3-yl)-N^3-(2-(4-pyrrolidin-1-ylpiperidin-1-yl)pyrimidin-5-yl)-1H-1,2,4-triazole-3,5-diamine], under setting [1], the negative logarithm of the IC50 (pIC50) was above 6.00.

With `Nc1nc(Nc2ccc(N3CCC(N4CCCC4)CC3)cc2)n(-c2cc3c(nn2)-c2ccccc2SCC3)n1` [Compound 172, 1-(6,7-dihydro-5H-benzo[2,3]thiepino[4,5-c]pyridazin-3-yl)-N^5-(4-(4-pyrrolidin-1-ylpiperidinyl)phenyl)-1H-1,2,4-triazole-3,5-diamine], where the note is “Hela cells, phospho-Akt chemiluminescence normalized to relative cell number, compounds of formula (Ib), Table 2”, the negative-log IC50 (pIC50) is below 4.70.

For `N#Cc1cc(Nc2nc(N)n(-c3cc4c(nn3)-c3ccccc3CCC4)n2)ccc1N1CCC(N2CCCC2)CC1` [Compound 18, 1-(6,7-dihydro-5H-benzo[6,7]cyclohepta[1,2-c]pyridazin-3-yl)-N^3-(4-(4-(pyrrolidin-1-yl)piperidin-1-yl)-3-cyanophenyl)-1H-1,2,4-triazole-3,5-diamine], under setting [2], the pIC50 was above 6.00.

As to `CN1CCN(CC=Cc2ccc(Nc3nc(N)n(-c4cc5c(nn4)-c4ccccc4CCC5)n3)cc2)CC1` [Compound 204, 1-(6,7-dihydro-5H-benzo[6,7]cyclohepta[1,2-c]pyridazin-3-yl)-N^3-(4-(4-methylpiperazin-1-ylprop-1-enyl)phenyl)-1H-1,2,4-triazole-3,5-diamine], the pIC50 under setting [1] was above 6.00.

Turning to `Nc1nc(Nc2cccnc2)nn1-c1cc2c(nn1)-c1ccccc1CCC2` [Compound 93, 1-(6,7-dihydro-5H-benzo[6,7]cyclohepta[1,2-c]pyridazin-3-yl)-N^3-(pyridin-3-yl)-1H-1,2,4-triazole-3,5-diamine], under setting [2], the pIC50 is below 4.70.

Take `CCN(CC)C1CCN(c2ccc(Nc3nc(N)n(-c4ncnc5c4CCCc4ccccc4-5)n3)cc2F)CC1` [Compound 39, 1-(6,7-dihydro-5H-benzo[6,7]cyclohepta[1,2-d]pyrimidin-4-yl)-N^3-(3-fluoro-4-(4-(diethylamino)piperidin-1-yl)phenyl)-1H-1,2,4-triazole-3,5-diamine]: the pIC50 under setting [2] was above 6.00.

With `CCCN(CCC)C1CCN(c2ccc(Nc3nc(N)n(-c4cc5c(nn4)-c4ccccc4CCC5)n3)cc2F)CC1` [Compound 83, 1-(6,7-dihydro-5H-benzo[6,7]cyclohepta[1,2-c]pyridazin-3-yl)-N^3-(3-fluoro-4-(4-(dipropylamino)piperidin-1-yl)phenyl)-1H-1,2,4-triazole-3,5-diamine], under setting [2], the pIC50 is 5.00 to 6.00.

`CCN(CC)C1CCN(c2ccc(Nc3nc(N)n(-c4cc5c(nn4)-c4ccccc4CCC5)n3)cc2F)C1` (stereo not shown) [Compound 32, 1-(6,7-dihydro-5H-benzo[6,7]cyclohepta[1,2-c]pyridazin-3-yl)-N^3-(3-fluoro-4-(3-(diethylamino)pyrrolidin-1-yl)phenyl)-1H-1,2,4-triazole-3,5-diamine]: the negative logarithm of the IC50 (pIC50) under setting [2] is above 6.00.

`Nc1nc(Nc2ccc(N3CCCN(C4CC5CCC4C5)CC3)nc2)nn1-c1cc2c(nn1)-c1ccccc1CCC2` (stereo not shown) [Compound 140, 1-(6,7-dihydro-5H-benzo[6,7]cyclohepta[1,2-c]pyridazin-3-yl)-N^3-(6-(4-(bicyclo[2.2.1]heptan-2-yl)-1,4-diazepan-1-yl)pyridin-3-yl)-1H-1,2,4-triazole-3,5-diamine]: the pIC50 under setting [1] was above 6.00.

In the case of `Nc1nc(Nc2ccc(C=CCN3CCCCC3)cc2)nn1-c1cc2c(nn1)-c1ccccc1CCC2` [Compound 198, 1-(6,7-dihydro-5H-benzo[6,7]cyclohepta[1,2-c]pyridazin-3-yl)-N^3-(4-(piperidin-1-ylprop-1-enyl)phenyl)-1H-1,2,4-triazole-3,5-diamine], the negative-log IC50 (pIC50) under setting [1] is above 6.00.

As to `CN(C)CCN1CCOc2cc(Nc3nc(N)n(-c4cc5c(nn4)-c4ccccc4CCC5)n3)ccc21` [Compound 121, 1-(6,7-dihydro-5H-benzo[6,7]cyclohepta[1,2-c]pyridazin-3-yl)-N^3-(4-(2-dimethylaminoethyl)-(3,4-dihydro-2H-benzo[b][1,4]oxazin-7-yl))-1H-1,2,4-triazole-3,5-diamine], the pIC50 under setting [2] is above 6.00.
